Assay results: paper PMC5431432, “Low-basicity 5-HT7 Receptor Agonists Synthesized Using the van Leusen Multicomponent Protocol” (Scientific Reports, 2017)
Read-outs that look alike come from different tables or passages of the source.

Legend:
human serotonin 5-HT1AR = molecular target: T1, human serotonin 5-HT1AR (Homo sapiens, UniProt P08908); experiment: Radioligand binding, [3H]-8-OH-DPAT displacement
T1 sequence (P08908 1-422): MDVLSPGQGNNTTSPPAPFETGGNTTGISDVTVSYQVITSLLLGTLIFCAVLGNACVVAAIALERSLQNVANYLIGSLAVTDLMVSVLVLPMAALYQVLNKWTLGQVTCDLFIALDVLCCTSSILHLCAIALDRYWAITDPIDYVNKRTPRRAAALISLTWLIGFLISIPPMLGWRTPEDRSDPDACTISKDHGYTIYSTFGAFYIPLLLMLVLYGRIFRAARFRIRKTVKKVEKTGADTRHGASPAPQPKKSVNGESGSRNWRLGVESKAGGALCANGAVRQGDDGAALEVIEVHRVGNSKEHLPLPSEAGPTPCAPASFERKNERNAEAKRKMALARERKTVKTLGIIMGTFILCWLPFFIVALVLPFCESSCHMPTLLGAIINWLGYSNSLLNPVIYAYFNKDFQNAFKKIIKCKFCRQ

[1] = molecular target: T2, human serotonin 5-HT2A receptor (Homo sapiens, UniProt P28223); experiment: Radioligand binding, [3H]-ketanserin displacement
T2 construct: host or cells: CHO-K1
T2 sequence (P28223 whole entry): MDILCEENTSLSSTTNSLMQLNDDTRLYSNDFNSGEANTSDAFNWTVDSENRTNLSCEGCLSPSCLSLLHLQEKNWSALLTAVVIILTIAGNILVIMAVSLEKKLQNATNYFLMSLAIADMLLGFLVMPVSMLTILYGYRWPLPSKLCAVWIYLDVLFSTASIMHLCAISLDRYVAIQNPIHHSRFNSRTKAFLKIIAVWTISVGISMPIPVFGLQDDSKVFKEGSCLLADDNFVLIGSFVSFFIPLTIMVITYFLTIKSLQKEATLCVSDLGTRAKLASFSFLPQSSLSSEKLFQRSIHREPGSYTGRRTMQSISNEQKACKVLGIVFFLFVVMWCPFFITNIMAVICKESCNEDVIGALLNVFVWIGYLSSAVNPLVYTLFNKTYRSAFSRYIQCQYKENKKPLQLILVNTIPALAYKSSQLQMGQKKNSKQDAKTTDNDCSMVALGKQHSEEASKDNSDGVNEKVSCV

human serotonin 5-HT6R = human serotonin 5-HT6R (Homo sapiens, UniProt P50406); experiment: Radioligand binding, [3H]-LSD displacement
Chain of human serotonin 5-HT6R (P50406 whole entry): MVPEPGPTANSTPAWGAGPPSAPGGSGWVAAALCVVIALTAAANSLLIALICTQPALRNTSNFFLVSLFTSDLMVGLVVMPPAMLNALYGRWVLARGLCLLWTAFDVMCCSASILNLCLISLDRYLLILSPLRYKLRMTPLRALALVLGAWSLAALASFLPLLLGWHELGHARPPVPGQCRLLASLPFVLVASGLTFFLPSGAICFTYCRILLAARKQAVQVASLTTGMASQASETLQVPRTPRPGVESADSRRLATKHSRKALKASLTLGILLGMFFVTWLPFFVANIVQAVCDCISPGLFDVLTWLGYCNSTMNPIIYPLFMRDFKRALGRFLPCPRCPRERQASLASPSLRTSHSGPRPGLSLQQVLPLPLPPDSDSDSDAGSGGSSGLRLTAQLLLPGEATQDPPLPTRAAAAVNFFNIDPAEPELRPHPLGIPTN

human serotonin 5-HT7bR = human serotonin 5-HT7bR (Homo sapiens, UniProt P34969); experiment: Radioligand binding, [3H]-5-CT displacement
Chain of human serotonin 5-HT7bR (P34969 1-432 limits assumed): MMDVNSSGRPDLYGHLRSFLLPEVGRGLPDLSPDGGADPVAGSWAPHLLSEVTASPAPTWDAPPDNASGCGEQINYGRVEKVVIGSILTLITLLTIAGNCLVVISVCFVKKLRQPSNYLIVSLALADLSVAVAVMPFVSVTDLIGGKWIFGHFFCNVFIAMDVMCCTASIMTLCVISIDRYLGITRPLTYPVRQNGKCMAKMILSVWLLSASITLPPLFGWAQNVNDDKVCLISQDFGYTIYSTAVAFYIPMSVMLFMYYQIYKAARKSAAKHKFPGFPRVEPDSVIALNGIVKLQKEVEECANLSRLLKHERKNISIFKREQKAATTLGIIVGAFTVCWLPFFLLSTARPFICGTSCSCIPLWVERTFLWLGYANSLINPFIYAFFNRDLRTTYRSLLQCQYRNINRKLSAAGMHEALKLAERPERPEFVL

human dopamine D2LR = human dopamine D2LR (Homo sapiens, UniProt P14416); experiment: Radioligand binding, [3H]-raclopride displacement
Chain of human dopamine D2LR (P14416 whole entry): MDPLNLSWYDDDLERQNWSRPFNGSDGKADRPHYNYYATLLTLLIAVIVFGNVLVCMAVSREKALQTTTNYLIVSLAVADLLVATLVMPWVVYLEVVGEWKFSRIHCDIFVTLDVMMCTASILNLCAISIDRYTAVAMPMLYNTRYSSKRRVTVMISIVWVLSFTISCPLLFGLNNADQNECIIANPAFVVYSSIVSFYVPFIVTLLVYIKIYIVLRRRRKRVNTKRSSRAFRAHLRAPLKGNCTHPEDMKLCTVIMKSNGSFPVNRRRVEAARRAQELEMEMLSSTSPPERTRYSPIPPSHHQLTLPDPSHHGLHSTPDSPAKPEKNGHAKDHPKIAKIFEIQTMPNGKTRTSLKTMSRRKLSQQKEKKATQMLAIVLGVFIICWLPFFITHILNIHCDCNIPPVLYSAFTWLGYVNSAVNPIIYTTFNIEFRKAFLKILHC

human 5-HT7 receptor = human 5-HT7 receptor (Homo sapiens, UniProt P34969); experiment: Functional assay, cAMP production (TR-FRET) in HEK293 cells overexpressing 5-HT7R; assay type: cell-based; conditions: for EC50: hydrochloride salts
Chain of human 5-HT7 receptor (P34969 1-432 limits assumed): as the sequence (P34969 1-432 limits assumed) above

[2] = Fig. 2, read-out: pKi 5-HT1A (converted)
[3] = Fig. 2, read-out: pKi 5-HT2A (converted)
[4] = Fig. 2, read-out: pKi 5-HT6 (converted)
[5] = Fig. 2, read-out: pKi D2 (converted)
[6] = Fig. 2, read-out: pKi 5-HT7 (converted)

SMILES | Ki (human serotonin 5-HT1AR; [2]) [µM] | Ki [1, 3] [µM] | Ki (human serotonin 5-HT6R; [4]) [µM] | Ki (human dopamine D2LR; [5]) [µM] | Ki (human serotonin 5-HT7bR; [6]) [nM] | further results
Cn1cc(CCN)c2ccccc21 [1-methyltryptamine, reference compound] |  |  |  |  |  | Ki (human serotonin 5-HT1AR): 2.39 µM; Ki [1]: 6.59 µM; Ki (human serotonin 5-HT6R): 3.62 µM; Ki (human serotonin 5-HT7bR): 4830 nM; Ki (human dopamine D2LR): 6.54 µM
Cn1cncc1-c1c[nH]c2ccccc12 [1a] | 4.47 | 6.92 | 3.39 | 6.92 |  | selectivity over 5-HT1AR (human serotonin 5-HT7bR): > 11 fold; Ki (human serotonin 5-HT7bR; read-out: Ki 5-HT7): 385 nM; melting point: 88 to 90 °C
COc1ccc2[nH]cc(-c3cncn3C)c2c1 [1b] | 0.851 | 3.39 | 2.4 | > 10 |  | selectivity over 5-HT1AR (human serotonin 5-HT7bR): > 11 fold; Ki (human serotonin 5-HT7bR; Table 1, the head of this column prints no unit, nM, read-out: K i (5-HT7R)): 55 nM; function at the human 5-HT7 receptor (human 5-HT7 receptor): full agonists; EC50 (human 5-HT7 receptor): 0.15 µM; melting point: 236 °C
CCn1cncc1-c1cn(C)c2ccccc12 [1c] | > 10 | > 10 | 7.76 | > 10 |  | Ki (human serotonin 5-HT7bR; read-out: Ki 5-HT7): 5620 nM
CCn1cncc1-c1cn(C)c2ccc(OC)cc12 [1d] | 5.01 | > 10 | 5.5 | > 10 |  | Ki (human serotonin 5-HT7bR; read-out: Ki 5-HT7): > 10000 nM
CCCn1cncc1-c1c[nH]c2ccc(OC)cc12 [1f] | > 10 | 4.27 | > 10 | > 10 | 64.6 | 
CCCCn1cncc1-c1c[nH]c2ccc(OC)cc12 [1g] | 0.661 | 6.17 | 5.89 | > 10 | 324 | 
COc1ccc2[nH]cc(-c3cncn3C3CC3)c2c1 [1h] | 1.29 | > 10 | 5.25 | > 10 | 3310 | binding to 5-HT7R in words (human serotonin 5-HT7bR): non-active
C=CCn1cncc1-c1c[nH]c2ccc(OC)cc12 [1i] | 0.537 | > 10 | 5.75 | > 10 | 135 | 
CCn1cncc1-c1c[nH]c2cc(Br)ccc12 [1j] | > 10 | > 10 | 6.92 | > 10 | > 10000 | binding to 5-HT7R in words (human serotonin 5-HT7bR): low affinity
CCn1cncc1-c1c[nH]c2cccc(Br)c12 [1k] | > 10 | > 10 | 8.71 | > 10 | 2290 | binding to 5-HT7R in words (human serotonin 5-HT7bR): low affinity
CCn1cncc1-c1c[nH]c2ccc(F)cc12 [1l] |  |  |  |  |  | Ki (human serotonin 5-HT7bR; read-out: Ki 5-HT7): 302 nM
CCn1cncc1-c1c[nH]c2ccc(Cl)cc12 [1m] |  |  |  |  |  | Ki (human serotonin 5-HT7bR; read-out: K i (5-HT7R)): 42 nM; function at the human 5-HT7 receptor (human 5-HT7 receptor): full agonists; EC50 (human 5-HT7 receptor): 0.149 µM
CCn1cncc1-c1c[nH]c2ccc(Br)cc12 [1n] |  |  |  |  |  | Ki (human serotonin 5-HT7bR; read-out: K i (5-HT7R)): 20 nM; function at the human 5-HT7 receptor (human 5-HT7 receptor): full agonists; EC50 (human 5-HT7 receptor): 0.154 µM
CCn1cncc1-c1c[nH]c2ccc(C#N)cc12 [1p] | > 10 | > 10 | > 10 | > 10 | 2510 | 
CCn1cncc1-c1c[nH]c2ccc(C)cc12 [1q] |  |  |  |  |  | Ki (human serotonin 5-HT7bR; read-out: K i (5-HT7R)): 44 nM; function at the human 5-HT7 receptor (human 5-HT7 receptor): full agonists; EC50 (human 5-HT7 receptor): 0.045 µM

SMILES | Ki (human serotonin 5-HT1AR; [2]) [µM] | Ki [1, 3] [µM] | Ki (human serotonin 5-HT6R; [4]) [µM] | Ki (human dopamine D2LR; [5]) [µM] | Ki (human serotonin 5-HT7bR; [6]) [nM] | further results
CCn1cncc1-c1c(C)[nH]c2ccc(OC)cc12 [1v] | > 10 | > 10 | > 10 | > 10 | > 10000 | 
COc1ccc2[nH]cc(-c3cnc[nH]3)c2c1 [1x] | 6.76 | 7.94 | 4.07 | 6.17 | 1200 | 
CCn1cncc1-c1c[nH]c2ccc(OCc3ccccc3)cc12 [1y] | > 10 | > 10 |  | 4.47 | 3720 | 
CCn1cncc1-c1c[nH]c2ccc(C(N)=O)cc12 [1za, 3-(1-Ethyl-1H-imidazol-5-yl)-1H-indole-5-carboxamide] |  |  |  |  |  | Ki (human serotonin 5-HT7bR; read-out: Ki 5-HT7): 5 nM
COc1ccc(-c2c([N+](=O)[O-])ncn2C)cc1 [2a] | > 10 | > 10 | > 10 | > 10 | > 10000 | binding to 5-HT1AR in words (human serotonin 5-HT1AR): did not bind; binding to 5-HT7R in words (human serotonin 5-HT7bR): did not bind; melting point: 171 °C
COc1ccc(-c2cncn2C)cc1 [2b] | > 10 | > 10 | 5.37 | > 10 | > 10000 | binding to 5-HT7R in words (human serotonin 5-HT7bR): completely inactive
COc1cccc(-c2cncn2C)c1 [2c] | > 10 | > 10 | 8.91 | > 10 | > 10000 | 
COc1ccccc1-c1cncn1C [2d] | > 10 | > 10 | > 10 | > 10 | 2450 | 
Cn1cncc1-c1ccccc1 [2e] | > 10 | > 10 | > 10 | > 10 | > 10000 | 
COc1cc(-c2cncn2C)c(OC)cc1I [2f] | > 10 | > 10 | 5.37 | 6.92 | > 10000 | 
CCn1cncc1-c1cc2ccccc2[nH]1 [3b] | > 10 | > 10 | > 10 | > 10 | > 10000 | 
CCn1cncc1-c1ccc2[nH]ccc2c1 [3c] | > 10 | > 10 | 3.55 | > 10 | 5250 | 
CCn1cncc1-c1ccc2cc[nH]c2c1 [3d] | > 10 | > 10 | 4.57 | > 10 | 2630 | 
NCCc1c[nH]c2ccc(Cl)cc12 [5-chlorotryptamine, reference compound] |  |  |  |  |  | Ki (human serotonin 5-HT1AR): 0.016 µM; Ki [1]: 0.317 µM; Ki (human serotonin 5-HT6R): 0.038 µM; Ki (human serotonin 5-HT7bR): 16 nM; Ki (human dopamine D2LR): 2.44 µM
COc1ccc2[nH]cc(CCN)c2c1 [5-methoxytryptamine, reference compound] |  |  |  |  |  | Ki (human dopamine D2LR): > 10 µM
Cc1ccc2[nH]cc(CCN)c2c1 [5-methyltryptamine, reference compound] |  |  |  |  |  | Ki (human serotonin 5-HT1AR): 0.039 µM; Ki [1]: 2.28 µM; Ki (human serotonin 5-HT6R): 0.327 µM; Ki (human serotonin 5-HT7bR): 26 nM; Ki (human dopamine D2LR): > 10 µM
